Results on eight molecules are retold here after article PMC9785863, “Thioether and Ether Furofuran Lignans: Semisynthesis, Reaction Mechanism, and Inhibitory Effect against α-Glucosidase and Free Radicals” (Molecules, 2022).

Bounds are passed on as bounds.

By Ki is commonly meant a dissociation constant, usually derived from enzyme kinetics or from competition with a known ligand.

The first experiment concerns the target T1, rat intestinal maltase.
T1 construct: gene Mgam; native, crude extract of rat intestinal acetone powder (Sigma), not purified; maltose-hydrolysing activity, shared by maltase-glucoamylase and sucrase-isomaltase
The experiment in a line: maltose hydrolysis, glucose assay kit, Lineweaver-Burk with secondary replots. In kind it is biochemical. The note with it: mixed inhibition; maltose 0.5-8 mM; pH 6.9, 37 °C. The text has this: maltose hydrolysis, glucose assay kit, Lineweaver-Burk with secondary replots on rat intestinal maltase
Regarding `CC(C)(C)c1cc(SC2OCC3C(c4ccc5c(c4)OCO5)OCC23)cc(C(C)(C)C)c1O` (stereo not drawn) [2α-7o], the inhibition constant Ki stood at 0.03 mM.

The target of a further experiment is T1, rat intestinal maltase. The experiment in a line: maltose hydrolysis, glucose assay kit, absorbance at […] nm. The format is biochemical. The note with it: maltose (2 mM stock), 0.1 M phosphate pH 6.9, 37 °C, 10 min; read-out: α-Glucosidase Inhibitory Effect (IC50, mM) ^a / Maltase.
On to `CCCCCCCCS[C@H]1OC[C@H]2[C@@H]1CO[C@@H]2c1ccc2c(c1)OCO2` [2α-7a], for which the IC50 was > 30 mM.
Turning to `OCCCCCCS[C@H]1OC[C@H]2[C@@H]1CO[C@@H]2c1ccc2c(c1)OCO2` [2α-7b], the IC50 was > 30 mM.
In the case of `c1cc2c(cc1[C@H]1OC[C@H]3[C@@H]1CO[C@@H]3SC1CCCCC1)OCO2` [2α-7c], the IC50 was > 30 mM.
With `Oc1ccc(S[C@H]2OC[C@H]3[C@@H]2CO[C@@H]3c2ccc3c(c2)OCO3)cc1` [2α-7f], the IC50 amounted to 14.7 ± 1 mM.
On to `CC(C)(C)c1cc(SC2OCC3C(c4ccc5c(c4)OCO5)OCC23)cc(C(C)(C)C)c1O` (stereo not drawn) [2α-7o], for which the IC50 turned out to be 11.8 ± 0.3 mM.
Consider `CCCCCCCCO[C@H]1OC[C@H]2[C@@H]1CO[C@@H]2c1ccc2c(c1)OCO2` [2α-9b], for which the IC50 is > 30 mM.
In the case of `Oc1ccc(S[C@@H]2OC[C@H]3[C@@H]2CO[C@@H]3c2ccc3c(c2)OCO3)cc1` [2β-7f], the IC50 was 14.2 ± 0.8 mM.
As to `C[C@H]1O[C@H](O[C@H]2[C@H](O)[C@@H](O)[C@@H](O[C@H]3[C@H](O)[C@@H](O)C(O)O[C@@H]3CO)O[C@@H]2CO)[C@H](O)[C@@H](O)[C@@H]1N[C@H]1C=C(CO)[C@@H](O)[C@H](O)[C@H]1O` (stereo partly drawn) [acarbose, reference compound], the IC50 stood at 1.4 ± 0.2 mM.
